Data as given in patent EP1510220B1 (priority 1993, dated 1994).

Tests used:
human EX cultures = assay: Proliferation of explant-derived (EX) human VSMC cultures; format: cell-based; conditions: Homo sapiens, VSMC
Experimental: (§1) Human aortic VSMC cultures. Adult human VSMC were obtained from 6 transplant donors (either sex, age range from 3 to 54 years) using the enzyme dispersal or explant technique. In one case, the same donor (a person) was used to establish both an enzyme-dispersed (ED) and explant-derived (EX) cell culture. Prior to enzyme-dispersion or explanting treatment, human aortas were obtained within 18 h of death. The endothelium layer was removed with a scalpel blade and strips of smooth muscle cells (tunica media) were removed with forceps and chopped into small pieces (1 mm^3).
(§2) EX Cultures. The aortic pieces were washed once with D-MEM + 10% FCS, resuspended in a small volume of fresh D-MEM + 10% FCS, and transferred to culture flasks or Petri dishes. The pieces were allowed to sediment onto the plastic and were evenly distributed (≈ 4 pieces/cm^2). Cells started to grow out from the explants after 3-7 d in culture. The aortic pieces were removed during the third week in culture, and the cells adhering to the plastic were allowed to grow to confluence for a further week. The cells were then subcultured every 4-5 days by releasing them with trypsin/EDTA and diluting them 1:2 in D-MEM + 10% FCS. Subcultured cells were incubated with fresh D-MEM + 20% FCS as described for ED cultures.
(§3) Cell counting, DNA synthesis assays and assays for total and active TGF-beta were performed as described in Example 7.

[1] = as above; format: cell-based; conditions: human, aortic vsmc ex cultures
Experimental: as §1, §2, §3

TGF-beta = assay: Sandwich ELISA for total latent plus active TGF-beta, rat vascular smooth muscle cell conditioned medium; format: cell-based
Experimental: The total latent and active TGF-beta present was determined by a sandwich ELISA. Maxisorb 96-well ELISA plates (available from Gibco) were coated with neutralizing antiserum against TGF-beta (BDA19; available from R & D Systems) at 2 micrograms/cm^2 in phosphate buffered saline (PBS) overnight at room temperature. The plates were washed between each step with tris-buffered saline containing 0.1% Triton X-100 (available from Sigma Chemical Company). The plates were incubated with samples for 2 hours, with a second antibody to TGF-beta (BDA5; available from R & D Systems) at 0.1 micrograms/ml for 2 hours, anti-rabbit IgG peroxidase conjugated to antibody (available from Sigma Chemical Co.), made up according to manufacturer's instructions, for 15 minutes. Absorbances at 492 nm were converted into quantities of TGF-beta protein using a standard curve. Both conditioned media and standards were assayed in the presence of 10% FCS in DMEM. This assay was linear for TGF-beta concentrations in the range from 0.1 ng/ml to 20 ng/ml in the presence of 10% FCS in DMEM.

[2] = test system: Balloon traumatized pig arteries; conditions: in vivo
[3] = test system: Vascular smooth muscle cells (BO54); assay: Scratch-migration assay with morphological toxicity grading; format: cell-based, baboon; design: key: - = no toxicity; +1 = minimal; +2 = mild; +3 = moderate; +4 = marked toxicity
Experimental: Scratch assays to determine the extent of smooth muscle cell migration inhibition by cytochalasin B were performed in accordance with the following protocol:
Vascular smooth muscle cells (BO54) were derived from explants of baboon aortic smooth muscle, as described in Example 1. The cells were grown in flat bottom, six well tissue culture plates, which hold about 5 ml of medium. The vascular smooth muscle cells were plated at 200,000 cells/well and placed at 37°C in a humidified 5% CO2 incubator for 18 hours. The wells were then scratched with a sterile portion of a single edge razor blade that was held by clamp or pliers and was brought aseptically into contact with the bottom of the well at a 90° angle. The cells from a small area along the scratch were removed by a sterile cotton tipped applicator while the blade was in contact with the bottom of the well. After incubation, the presence of cells in the "scratched" area is indicative of cell migration across the scratch line.
Briefly, a stock solution of cytochalasin B (Sigma Chemical Co.) in dimethyl sulfoxide (DMSO) at 1 mg/ml was prepared. Test dilutions of cytochalasin B or control medium were added. Each experiment included two sets of plates: • A set: Test agent exposure for 1, 3, 6, 8 and 10 days only; and • B set: Test agent exposure for 1, 3, 6, 8 and 10 days, followed by a seven day recovery time with control medium. Both sets of plates were fixed (10% formalin in PBS) and stained (0.02% crystal violet) at the end of the timed exposures. Test concentrations for cytochalasin B were 1, 0.1 and 0.01 µg/ml, and a negative medium control was included. Fresh medium and drug were supplied 3 times per week.
In this Table, "M" indicates Migration Grade, wherein - = no migration; +1 = minimal; +2 = mild; +3 = moderate; and +4 = marked (maximum density; limit of cell contact inhibition) migration of vascular smooth muscle cells into the cleared area adjacent to the scratch. In this Table, "T" denotes a morphological Toxicity Grade, wherein - = no toxicity; +1 = minimal; +2 = mild; +3 = moderate; and +4 = marked toxicity. The migration results are expressed as "Grade in the Cleared Area of the Well / Grade in an Undisturbed Region of the Well." The toxicity values represent a grade for all cells in each well.

[4] = test system: B054 cells (baboon smooth muscle cells); assay: cells; format: cell-based

CC/C(=C(\c1ccccc1)c1ccc(OCCN(C)C)cc1)c1ccccc1 [tamoxifen, trans-2-[4-(1,2-diphenyl-1-butenyl)phenoxy]-N,N-dimethylethylamine]
inhibition at 0.5 µM (human EX cultures; 0.5 µM, 96 h in D-MEM + 20% FCS, vs ethanol vehicle, read-out: inhibition of the increase in cell number): 27 ± 2%
inhibition at 5 µM (human EX cultures; 5 µM, read-out: inhibition of the increase in cell number): 33 ± 8%
IC50 (human EX cultures; read-out: half-maximal inhibitory dose): 30 to 100 nM
MCC [1]: > 33 µM
proportion of the TGF-beta present in active form (TGF-beta; 50 micromolar, 96 hours, vehicle < 5%): approximately 35%
fold induction at 50 µM (TGF-beta; Rattus norvegicus, 96 h, read-out: increase of total TGF-beta protein present): ~4

cytochalasin B
lumen area in the test region compared to the normal control segment of the same artery [2]: approximately two times
luminal area compared to arteries treated with other test agents or controls [2]: larger luminal area
toxicity to the vascular smooth muscle cells [2]: appeared to be toxic
morphological Toxicity Grade ([3]; 7-day Recovery Post Exposure, 0.01 µg/mL, Day 1): -
morphological Toxicity Grade ([3]; 7-day Recovery Post Exposure, 0.01 µg/mL, Day 3): -
morphological Toxicity Grade ([3]; 7-day Recovery Post Exposure, 0.01 µg/mL, Day 6): -
morphological Toxicity Grade ([3]; 7-day Recovery Post Exposure, 0.01 µg/mL, Day 8): -
morphological Toxicity Grade ([3]; 7-day Recovery Post Exposure, 0.01 µg/mL, Day 10): -
morphological Toxicity Grade ([3]; 7-day Recovery Post Exposure, 0.1 µg/mL, Day 1): -
morphological Toxicity Grade ([3]; 7-day Recovery Post Exposure, 0.1 µg/mL, Day 3): -
morphological Toxicity Grade ([3]; 7-day Recovery Post Exposure, 0.1 µg/mL, Day 6): -
morphological Toxicity Grade ([3]; 7-day Recovery Post Exposure, 0.1 µg/mL, Day 8): -
morphological Toxicity Grade ([3]; 7-day Recovery Post Exposure, 0.1 µg/mL, Day 10): -
morphological Toxicity Grade ([3]; Continuous Exposure, 0.01 µg/mL, Day 1): -
morphological Toxicity Grade ([3]; Continuous Exposure, 0.01 µg/mL, Day 3): -
morphological Toxicity Grade ([3]; Continuous Exposure, 0.01 µg/mL, Day 6): -
morphological Toxicity Grade ([3]; Continuous Exposure, 0.01 µg/mL, Day 8): -
morphological Toxicity Grade ([3]; Continuous Exposure, 0.01 µg/mL, Day 10): -
morphological Toxicity Grade ([3]; Continuous Exposure, 0.1 µg/mL, Day 1): -
morphological Toxicity Grade ([3]; Continuous Exposure, 1.0 µg/mL, Day 6): +4
morphological Toxicity Grade ([3]; Continuous Exposure, 1.0 µg/mL, Day 8): +4
morphological Toxicity Grade ([3]; Continuous Exposure, 1.0 µg/mL, Day 10): +4
minimum effective dose (MED), protein synthesis assay ([4]; 5 minute exposure): 10 µg/mL
minimum effective dose (MED), protein synthesis assay ([4]; 24 hour exposure): 1.0 µg/mL
